{"source": "patent US11446354B2", "about": "“Method of treatment” (Hexima Limited, priority 2014, dated 2022)", "key": {"Trichophyton rubrum": {"system": "Trichophyton rubrum", "assay": "Inhibition of growth of Trichophyton rubrum over 28 days, daily dosing", "assay_type": "cell-based", "method": "The inhibitory effect of HXL008 on the growth of Trichophyton rubrum (obtained from the National Mycology Reference Centre, South Australia Pathology at the Women's and Children's Hospital, Adelaide, Australia) was monitored over 28 days.\nSpores of T. rubrum, are isolated from sporulating fungus growing on ½ strength Sabouraud dextrose agar. Spores are removed from the plates by the addition of ½ strength potato dextrose broth (PDB). Spore and cell concentrations are measured using a hemocytometer.\nSpores were diluted to a concentration of 5×10^4 spores/mL in ½ PBD (2 mL) containing 0, 10 or 50 μg/mL HXL008. Cultures are incubated at 30 C without shaking. After 24 h, 100 μL of each culture is extracted and plated onto ½ SDA plates. An additional 100 uL of ½ PDB is then added containing either 0, 20 or 100 μg of HXL008. SDA plates are then incubated at 30 C for 5 days. This process is repeated every 24 h for 28 days. After 15 days, the culture containing no HXL008 becomes too thick to pipette and is no longer used in the assay."}, "[1]": {"system": "clinical isolates of T. rubrum", "assay": "Cell survival assay, clinical isolates of T. rubrum plated after 72 h with HXL008", "assay_type": "cell-based, Trichophyton rubrum", "details": "72 h with HXL008 (100 g/mL, 100 μM elsewhere in the source), 5 days at 30° C.", "method": "FIGS. 3(a) through (e) are photographic representations of surviving colonies of T. rubrum grown on agar plates after treatment with 100 μM HXL008 for 72 h. Panels (a) to (d) represent clinical isolates 14-01, 14-02, 14-03 and 13-04, respectively. Surviving colonies are marked with a black rectangle. Panel (e) represents the growth of T. rubrum that has not been treated with HXL008.\nAfter incubation for 72 h, the media from wells containing clinical isolates of T. rubrum incubated with 100 […] HXL008 was plated onto fresh Sabouraud dextrose agar. Plates were incubated at 30° C. for 5 days to allow colonies to develop before being photographed."}, "[2]": {"system": "Trichophyton rubrum, T. interdigitale, Microsporum fulvum and C. albicans", "assay": "Inhibition assays summarised across the range of fungal pathogens", "assay_type": "cell-based", "details": "summary of Table 3", "method": "The inhibitory effects of the plant defensins on the growth of Trichophyton rubrum, T. interdigitale, Microsporum fulvum and C. albicans (obtained from the National Mycology Reference Centre, South Australia Pathology at the Women's and Children's Hospital, Adelaide, Australia) are measured essentially as described by Broekaert et al. (1990) FEMS Microbiol Lett 69:55-59. Spores of T. rubrum, T. interdigitale and M. fulvum are isolated from sporulating fungus growing on 1⁄2 strength Sabouraud dextrose agar (SDA). Spores were removed from the plates by the addition of 1⁄2 strength potato dextrose broth (PDB). C. albicans cells are grown in Yeast Peptone Broth (YPD) for 16 h. Spore and cell concentrations are measured using a hemocytometer. Antifungal assays are conducted in 96 well microtitre plates essentially as herein described. Wells are loaded with 20 μL of filter sterilized (0.22 μm syringe filter, Millipore) defensin (10× stock for each final concentration) or water and 80 μL of 5×10^4 spores/mL (T. rubrum, T, interdigitale, M. fulvum) or 5,000 cells/mL (C. albicans) in 1⁄2 strength PDB. The plates are incubated at 30° C. Fungal growth is assayed by measuring optical density at 595 nm ([…]) using a microtitre plate reader (SpectraMax Pro M2; Molecular Devices. Growth is allowed to proceed until the optical density (OD) of the fungus in the absence of any test defensin reached an OD of 0.2. Each test is performed in duplicate."}, "[3]": {"system": "Human monocytic lymphoma (U937) cells", "assay_type": "cell-based", "method": "Human monocytic lymphoma (U937) cells are cultured in RPMI-1640 medium. All culture media are supplemented with 5-10% v/v fetal calf serum, 100 U/ml of penicillin, and 100 μg/ml of streptomycin. Cell lines are cultured at 37° C. in a humidified atmosphere containing 5% v/v CO2. Adherent cell lines are detached from the flask by adding a mixture containing 0.25% v/v trypsin and […]. A flow cytometry-based propidium iodide (PI) uptake assay is performed to analyze the ability of plant defensins to permeabilize U937 cells (essentially as described in Poon et al, 2014). Briefly, cells are suspended to 1×10^6 cells/ml in 0.1% v/v BSA/RPMI-1640 and incubated with plant defensins (10 μM) at 37° C. for 30 min. Samples are added to PBS containing a final concentration of 1 μg/ml PI and placed on ice. Samples are then analyzed immediately using the BD FACSCanto II Flow Cytometer and BD FACSDiva software v6.1.1. The resultant flow cytometry data is analyzed using FlowJo software v8.8.6. Cells are gated appropriately based on forward scatter and side scatter and cell permeabilization is defined by PI-positive staining."}, "[4]": {"assay_type": "in vitro ADME, Human", "method": "Penetration of NaD1 through human nails was measured according to the method of Hui et al. (2002) J Pharm Sci 91(1):189-195. Human toenails were obtained from ScienceCare (USA) and washed with phosphate buffered saline (details, PBS) before being placed on a kimwipe that had been soaked in PBS for 3 h to rehydrate the nail. The nail was then placed in a plastic nail adapter with a dosing area of 0.5×0.5 cm (Permagear, USA) and a cotton bud wetted with 75 microlitres of PBS was placed in the receptor chamber in contact with the underside of the nail.\nThe cotton bud in contact with the underside of the nail was removed after 24 h and every 24 h following. Protein that had passed through the nail was recovered from the cotton bud by washing twice with 500 μL of 0.1% v/v trifluoroacetic acid. Recovered protein was quantified using RP-HPLC."}, "Escherichia coli": {"system": "Escherichia coli", "assay": "Inhibition of the growth of Escherichia coli", "assay_type": "cell-based", "details": "0.1625-10 μM, 18 hours, 37° C.", "method": "A single E. coli colony was used to inoculate 5 ml of Luria-Bertani media and grown overnight at 37° C. The following day, the optical density of the culture was measured and the E. coli diluted to an optical density at 600 nm (OD600) of 0.01 in Mueller-Hinton Broth. Diluted E. coli were added to 96-well plates with defensins at concentrations of 10 μM, 5 μM, 2.5 μM, 1.25 μM, 0.625 μM, 0.3125 μM or 0.1625 μM. Plates were read at OD595 to obtain time zero data points. Plates were incubated at 37° C. for 18 hours before reading again at OD595 to assess the amount of E. coli growth."}}, "data": [{"substance": "HXL008: Class I plant defensin from Picramnia pentandra, SEQ ID NO: 1 (KVCTKPSKFFKGLCGTDGACTTACRKEGLHSGYCQLKGFLNSVCVCRKHC; HXL008 Picramnia pentandra)", "values": [{"measurement": "Visible growth of T. rubrum in culture", "setting": "Trichophyton rubrum; 10 μg/mL or 50 μg/mL, over the duration of the assay (28 days)", "result": "did not display any visible growth"}, {"measurement": "T. rubrum cells killed", "setting": "Trichophyton rubrum; HXL008 50 μg/mL, within 24 h", "result": "more than 80%"}, {"measurement": "Surviving colonies per plate", "setting": "Trichophyton rubrum; after 20 days of treatment, 100 μL plated", "result": "0 or only 1"}, {"measurement": "Surviving colonies on agar plates after incubation with HXL008", "setting": "[1]", "result": "1-3 colonies"}, {"measurement": "Antifungal activity across the range of fungal pathogens, result in words", "setting": "[2]", "result": "most effective plant defensins across the range of fungal pathogens"}, {"measurement": "U937 cells permeabilized (PI-positive)", "setting": "[3]", "result": "less than 2%"}, {"measurement": "Nail penetration, result in words", "setting": "[4]", "result": "able to penetrate nails faster and more effectively than the active ingredients of current topical onychomycosis therapies"}, {"measurement": "Growth of E. coli in the presence of defensin", "setting": "Escherichia coli", "result": "did not inhibit growth of E. coli at the concentrations tested"}]}]}
